Data as given in the NIST ThermoML archive (doi:10.1021/je060429r).

Conditions: Transpiration method

Oc1cccc(Cl)c1 [3-chlorophenol]
Conditions	vapor or sublimation pressure [kPa]
275.3 K, Crystal	0.00082
276.6 K, Crystal	0.00095
278.3 K, Crystal	0.00115
280.3 K, Crystal	0.00149
283.2 K, Crystal	0.00212
285.2 K, Crystal	0.00262
288.3 K, Crystal	0.00366
291.3 K, Crystal	0.00509
294.3 K, Crystal	0.00721
297.3 K, Crystal	0.00999
300.3 K, Crystal	0.01323
302.2 K, Crystal	0.01626
306 K, Crystal	0.02395
308.3 K, Liquid	0.0294
311.1 K, Liquid	0.0361
314.2 K, Liquid	0.0455
317.2 K, Liquid	0.058
320.3 K, Liquid	0.073
323.2 K, Liquid	0.0905
326.2 K, Liquid	0.1116
329.2 K, Liquid	0.1366
332.2 K, Liquid	0.1669
335.2 K, Liquid	0.2002

Oc1ccc(Cl)cc1 [4-chlorophenol]
Conditions	vapor or sublimation pressure [kPa]
283.2 K, Crystal	0.00132
288.2 K, Crystal	0.00236
291.2 K, Crystal	0.00332
294.2 K, Crystal	0.00459
297.2 K, Crystal	0.00622
300.2 K, Crystal	0.00839
303.2 K, Crystal	0.01163
306.2 K, Crystal	0.01571
309.2 K, Crystal	0.02076
311.2 K, Crystal	0.02535
313.2 K, Crystal	0.03092
318.2 K, Liquid	0.0485
321.2 K, Liquid	0.0615
324.2 K, Liquid	0.0754
327.2 K, Liquid	0.0926
330.2 K, Liquid	0.1141
333.2 K, Liquid	0.1388
336.2 K, Liquid	0.1699
339.2 K, Liquid	0.2022
342.2 K, Liquid	0.2534
345.2 K, Liquid	0.3058
348.2 K, Liquid	0.3684
351.2 K, Liquid	0.4409

Oc1ccccc1Cl [2-chlorophenol]
Liquid
Conditions	vapor or sublimation pressure [kPa]
288.4 K	0.0863
291.3 K	0.1102
294.3 K	0.1378
297.3 K	0.1681
300.3 K	0.2059
303.3 K	0.2559
306.2 K	0.3083
309.2 K	0.3763
312.2 K	0.4633
315.2 K	0.5579
318.2 K	0.6649
321.2 K	0.7992

Oc1c(Cl)c(Cl)c(Cl)c(Cl)c1Cl [pentachlorophenol]
Crystal
Conditions	vapor or sublimation pressure [kPa]
348.1 K	0.00127
353.1 K	0.00206
358 K	0.00304
363 K	0.00483
367.8 K	0.00681
371.9 K	0.00975
378.1 K	0.01517
383 K	0.02172
388.9 K	0.03268
393.2 K	0.04374
397.8 K	0.06045
399.8 K	0.07143
403.2 K	0.09099

Oc1cc(Cl)ccc1Cl [2,5-dichlorophenol]
Conditions	vapor or sublimation pressure [kPa]
294.3 K, Crystal	0.0089
297.3 K, Crystal	0.0122
300.4 K, Crystal	0.0168
303.3 K, Crystal	0.0223
306.3 K, Crystal	0.0302
309.2 K, Crystal	0.0399
312.2 K, Crystal	0.0532
315.2 K, Crystal	0.0708
318.3 K, Crystal	0.0944
321.3 K, Crystal	0.1257
324.4 K, Crystal	0.1636
327.4 K, Crystal	0.2133
333.3 K, Liquid	0.3198
337.2 K, Liquid	0.3996
340.2 K, Liquid	0.4726
343.2 K, Liquid	0.5513
346.2 K, Liquid	0.6514
349.2 K, Liquid	0.7643
352.2 K, Liquid	0.894
355.2 K, Liquid	1.048
358.1 K, Liquid	1.204
361.2 K, Liquid	1.403

Oc1c(Cl)cccc1Cl [2,6-dichlorophenol]
Conditions	vapor or sublimation pressure [kPa]
298.5 K, Crystal	0.0073
301.6 K, Crystal	0.01
304.6 K, Crystal	0.0137
307.4 K, Crystal	0.0183
310.4 K, Crystal	0.0245
313.4 K, Crystal	0.0331
316.4 K, Crystal	0.0437
319.4 K, Crystal	0.0591
322.4 K, Crystal	0.0774
325.4 K, Crystal	0.1006
328.4 K, Crystal	0.1312
331.3 K, Crystal	0.1685
341.2 K, Liquid	0.3444
344.7 K, Liquid	0.4173
347.3 K, Liquid	0.4838
350.3 K, Liquid	0.5727
353.3 K, Liquid	0.6745
356.3 K, Liquid	0.7745
360.3 K, Liquid	0.9734
363.3 K, Liquid	1.143
366.3 K, Liquid	1.315
371.4 K, Liquid	1.664
